Measured values as given in patent US9737502B2, “Calebin A for hepatic steatosis” (SAMI LABS LIMITED, priority 2011, dated 2017).
Marks after values point to notes of the source that are not given here.

Columns and labels:
leptin = experiment: Estimation of leptin in adipocyte supernatant by ELISA; assay type: cell-based; details: human adipocytes
Description: (§1) 3T3-L1 cells approximately 60×10^4 cells are seeded for 48-72 hrs to get 70-80% confluence. After 48 hrs 200 μl of AIM (Adipogenesis induction medium) freshly prepared is added. 72 hrs later 200 μl APM (Adipogenesis progression medium) with the test compounds in different concentrations is added to the wells. The cells are incubated for 48 hrs in a humidified atmosphere (37° C.) of 5% CO2 and 95% air. The supernatant is collected and stored for the estimation of leptin, adiponectin, IL-6 and TNF-α by ELISA. Cells are fixed by adding 100 μl of 10% formalin and ORO staining is done. OD is read at 492 nm in microplate reader. The results are expressed as IC50 values using Graphpad prism software.
(§2) The percentage of inhibition of adipogenesis is calculated as follows, % inhibition=C−T/[…] Where C-absorbance of Oil red 0 in differentiating/undifferentiated cells T-absorbance of Oil Red-O in sample treated differentiating/undifferentiated cells. The estimation of leptin, adiponectin, IL-6 and TNF-α is done according to user's manual from R&D Systems.

adiponectin [1] = experiment: Estimation of adiponectin in adipocyte supernatant by ELISA; assay type: cell-based; details: human adipocytes
Description: as §1, §2

TNF-α = experiment: Estimation of TNF-α in adipocyte supernatant by ELISA; assay type: cell-based; details: human adipocytes
Description: as §1, §2

IL-1 beta = experiment: Serum IL-1 beta in LPS-injected mice after 6 days oral treatment (ELISA); assay type: in vivo, Swiss albino mice; details: graded doses, then LPS 1 mg/kg i.v., serum 90 min after LPS
Description: (§3) The present inventors also adduce study data on the ability of Calebin A to reduce expression of Extracellular TNF-α, IL-1 beta [FIG. 6] and IL-6 [FIG. 7] in serum from treated mice (in-vivo models). Swiss albino male mice aged 6-8 weeks were maintained at 22±2° C. under 12/12 h light dark cycle. Mice received oral treatment of test drugs at graded doses (w/v) for 6 days, followed by intravenous injection of 1 mg/kg of LPS according to the method described by Brieva A, Guerrero A, Alonso-Lebrero J L and Pivel J P. 2001. Immunoferon, a glycoconjugate of natural origin, inhibits LPS-induced TNF-α production and inflammatory responses. International Immunopharmacology 1, 1979-1987. Six mice were employed in each group and experiments were performed in triplicates. TNF-α, IL-1 beta and IL-6 production was evaluated by a commercial ELISA kits (R&D Systems) in serum from treated mice, 90 min after LPS injection. Rolipram at 30 mg/kg was used as standard drug.

IL-6 = experiment: Serum IL-6 in LPS-injected mice after 6 days oral treatment (ELISA); assay type: in vivo, Swiss albino mice; details: graded doses, then LPS 1 mg/kg i.v., serum 90 min after LPS
Description: as §3

adiponectin [2] = experiment: Study 2: serum adiponectin by ELISA in obese mice; assay type: in vivo, C57 mice; details: Study 2, end of study period
Description: Further, on completion of the study period blood samples were collected from all the animals in […] for estimation of systemic expression of leptin and adiponectin. Blood samples were collected humanely from retro-orbital plexus puncture method under mild ether anesthesia with the help of a fine capillary tube. The blood samples collected in tubes without anticoagulant were centrifuged at 3000 rpm for 10 minutes to obtain serum which was subjected to ELISA technique for the estimation of leptin and adiponectin. The import of leptin and adiponectin expression as biomarkers in obesity has been discussed in aforesaid paragraphs. […] Low systemic adiponectin levels have been cited as predictive factors in the progression of disease states like Type II Diabetes mellitus (Chamukuttan Snehalatha et al, “Plasma Adiponectin Is an Independent Predictor of Type 2 Diabetes in Asian Indians”, Diabetes Care December 2003 vol. 26 no. 12 3226-3229).

[3] = Serum biochemistry (TCHO, TG, HDL, GOT, GPT) in HFD-fed mice, 12 weeks; assay type: in vivo, C57BL/6J mice; details: for GPT: HFD 38.25 ± 8.92; for HDL: HFD 109.40 ± 1.34; for TG: HFD 151.00 ± 8.89; for TCHO: HFD 162.67 ± 15.89; for GOT: HFD 335.28 ± 18.80
Description: Food cups were replenished with fresh diet daily. […] Statistical analysis was done by Student's t test.
C57BL/6J mice fed with HFD for period of 12 weeks were evaluated for serum levels of GOT and GTP. Results indicated enhanced serum GOT and GTP (TABLE XI) when compared to the ND group.
Data were presented as the mean±SE (n=8 per group). […] ND: normal diet; HFD: high fat diet.

[4] = system: HFD induced hepatic steatosis; experiment: Liver histopathology and hepatic triglyceride in HFD-fed mice; assay type: in vivo, C57BL/6J mice; details: Calebin A 0.25% and 1% in HFD, dose dependant
Description: A portion of the livers in different groups were dissected and fixed in 10% buffered formalin for at least 24 hours, then dehydrated with a sequence of ethanol solutions and processed for embedding in paraffin. Sections of 5-6 μm in thickness were cut, deparaffinized, rehydrated, stained with haematoxylin & eosin (H&E) and subjected to pbotomicroscopic assessment. Liver histopathology was evaluated according to the NAFLD system outlined in Kleiner, D. E., Brunt, E. M., Van, N. M., Behling, C. et al., Design and validation of a histological scoring system for nonalcoholic fatty liver disease. Hepatology 2005, 41, 1313-1321. The score of hepatocellular ballooning was graded 0-2 based on the number of balloon cell per field at ×200 magnification (grading: 0=no balloon cell; 1=few balloon cells; 2=prominent balloon cells) in H&E stained sections. The number of infiltrating immune cells was counted at 200× magnification in five different areas. In the HFD group significant inflammatory degeneration, hepatocellular ballooning degeneration and triglyceride accumulation were seen. Quantitative analysis indicated elevated hepatic triglyceride levels as compared to the ND group. Administration of Calebin A at concentrations of 0.25% and 1% attenuated HFD induced triglyceride, hepatocellular ballooning degeneration and inflammatory infiltration in a dose dependant manner. Accordingly, in another most preferred embodiment, the present invention relates to a method of treating high fat diet (HFD) induced hepatic steatosis in mammals, said method comprising step of bringing into contact HFD affected hepatic cells marked by inflammatory infiltration, hepatocellular ballooning degeneration and high triglyceride levels with Calebin A derived from orally administering to said mammals effective concentrations of Calebin A to bring about the effect of attenuation of hepatic steatosis in a dose dependant manner. Alternatively, in another most preferred embodiment, the present invention also relates to Calebin A for treating high fat diet (HFD) induced hepatic steatosis in mammals.

## COc1cc(/C=C/C(=O)COC(=O)/C=C/c2ccc(O)c(OC)c2)ccc1O [Calebin A]
leptin; 0.5 μg/ml
  percentage inhibition of leptin production: 34.92%
leptin; 1.0 μg/ml
  percentage inhibition of leptin production: 41.04%
leptin; 2.0 μg/ml
  percentage inhibition of leptin production: 39.48%
Adiponectin [1]; 0.5 μg/ml
  percentage enhancement of adiponectin expression: 27.12%
Adiponectin [1]; 1.0 μg/ml
  percentage enhancement of adiponectin expression: 34.06%
Adiponectin [1]; 2.0 μg/ml
  percentage enhancement of adiponectin expression: 32.8%
TNF-α; 0.5 μg/ml
  percentage inhibition of TNF-α: 36.03%
TNF-α; 1.0 μg/ml
  percentage inhibition of TNF-α: 40.81%
TNF-α; 2.0 μg/ml
  percentage inhibition of TNF-α: 45.47%
IL-1 beta
  expression of IL-1 beta in serum: effective in reducing
IL-6
  expression of IL-6 in serum: effective in reducing
Adiponectin [2]
  enhancing the adiponectin expression in the serum of obese animals: significant effect
[3]; HFD + 0.25% Calebin A
  GPT: 23.00 ± 2.92^c U/l
  HDL: 107.80 ± 2.05^a mg/dl
  TG: 121.25 ± 6.55^b mg/dl
  TCHO: 136.50 ± 7.51^c mg/dl
  GOT: 110.33 ± 2.52^b U/l
[3]; HFD + 1% Calebin A
  GPT: 32.50 ± 3.00^a U/l
  HDL: 104.50 ± 8.80^a mg/dl
  TG: 89.75 ± 5.85^b mg/dl
  TCHO: 110.50 ± 17.97^a mg/dl
  GOT: 77.50 ± 11.12^c U/l
[4]
  HFD induced hepatic triglyceride: attenuated
[4]; H&E
  inflammatory infiltration in liver: attenuated
[4]; H&E, NAFLD scoring
  hepatocellular ballooning degeneration: attenuated
